Laboratory results from patent US20220396577A1, “NOVEL SUBSTITUTED 1,3-8-TRIAZASPIRO[4,5] DECANE-2,4-DIONE COMPOUNDS AS INDOLEAMINE 2,3-DIOXYGENASE (IDO) AND/OR TRYPTOPHAN 2,3-DIOXYGENASE (TDO) INHIBITORS” (Merck Sharp & Dohme LLC, priority 2019, published 2022).

Experiments:
SGK2 = molecular target: T1, SGK2 (Homo sapiens, UniProt Q9HBY8); assay: Off-target kinase panel, ZLYTE: SGK2; format: biochemical; conditions: read-out: Estimated IC50 (uM) SGK2
T1 sequence (Q9HBY8 1-367): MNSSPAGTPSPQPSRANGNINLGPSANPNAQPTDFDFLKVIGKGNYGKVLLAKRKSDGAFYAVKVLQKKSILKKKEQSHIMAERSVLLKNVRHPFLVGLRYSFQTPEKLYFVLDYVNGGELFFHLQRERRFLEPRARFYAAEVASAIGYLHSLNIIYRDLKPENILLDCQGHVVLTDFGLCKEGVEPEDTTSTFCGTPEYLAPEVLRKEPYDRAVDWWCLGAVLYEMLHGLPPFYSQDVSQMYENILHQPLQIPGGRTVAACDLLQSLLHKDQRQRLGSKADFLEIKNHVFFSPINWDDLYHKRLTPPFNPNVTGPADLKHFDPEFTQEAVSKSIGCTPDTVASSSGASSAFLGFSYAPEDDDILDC
Text: The activity data was obtained in a panel of 265 and 264 for compounds 1-1 and CC-1, respectively, using the ZLYTE and ADAPTA assay methods indicated in the table below.
The ZLYTE biochemical assay employs a fluorescence-based, coupled-enzyme format and is based on the differential sensitivity of phosphorylated and non-phosphorylated peptides to proteolytic cleavage. The peptide substrate is labeled with two fluorophores—one at each end—that make up a Fluorescence Resonance Energy Transfer (FRET) pair.
In the primary reaction, the kinase transfers the gamma-phosphate of ATP to a single tyrosine, serine or threonine residue in a synthetic FRET-peptide. In the secondary reaction, a site-specific protease recognizes and cleaves non-phosphorylated FRET-peptides. Phosphorylation of FRET-peptides suppresses cleavage by the Development Reagent. […] A ratiometric method, which calculates the ratio (the Emission Ratio) of donor emission to acceptor emission after excitation of the donor fluorophore at 400 nm, is used to quantitate reaction progress, as shown in the equation below. […]
Both cleaved and uncleaved FRET-peptides contribute to the fluorescence signals and therefore to the Emission Ratio. The extent of phosphorylation of the FRET-peptide can be calculated from the Emission Ratio. […]
10. Read on fluorescence plate reader and analyze the data.

IDO1 = IDO1 (Homo sapiens, UniProt P14902); assay: IDO1 Human Whole Blood Assay (D); format: cell-based; set-up: from tissue; host or cells: human whole blood from healthy donors, stimulated with LPS and IFNγ; conditions: LPS and IFNγ, 18 h, read-out: IDO WB IC50, nM (D)
Protocol: Compounds to be tested were serially diluted in ten 3-fold steps in DMSO starting from 10 mM. 3 μL of compound dilutions or DMSO alone were then dispensed from the dilution plate into a polypropylene 96-well assay plate containing 97 μL of RPMI using an Echo 555 acoustic liquid handler (Labcyte). LPS and IFNγ was prepared in RPMI to a 10× of final conc. (1000 ng/mL), final concentration is 100 ng/mL.
Human whole blood was drawn in sodium heparin coated tubes from healthy internal donors. 240 μL of blood was transferred to each of the wells of a v-bottom 96 well plate. 30 μL of a compound was transferred from intermediate dilution plate, and incubated for 15 min. 30 μL of the LPS and IFNγ solution prepared above was then transferred to a blood sample and mixed thoroughly. Plate was covered with breathable membrane and incubated at 37° C. for overnight (18 h).
On day 2 isotope labeled standard of kynurenine and tryptophan was made in water at 10× concentration and 30 μL was added to the blood sample at 3 μM final concentration. […] 20 μL of supernatant was carefully transferred to a 384 well plate contain 40 μL of 0.1% formic acid in water and analyzed by LC/MS/MS.
LC/MS/MS analyses were performed using Thermo Fisher's LX4-TSQ Quantum Ultra system. […] Compounds were titrated and IC50 values were calculated by 4 parameter sigmoidal curve fitting formula.

Sequence of IDO1 (P14902 whole entry): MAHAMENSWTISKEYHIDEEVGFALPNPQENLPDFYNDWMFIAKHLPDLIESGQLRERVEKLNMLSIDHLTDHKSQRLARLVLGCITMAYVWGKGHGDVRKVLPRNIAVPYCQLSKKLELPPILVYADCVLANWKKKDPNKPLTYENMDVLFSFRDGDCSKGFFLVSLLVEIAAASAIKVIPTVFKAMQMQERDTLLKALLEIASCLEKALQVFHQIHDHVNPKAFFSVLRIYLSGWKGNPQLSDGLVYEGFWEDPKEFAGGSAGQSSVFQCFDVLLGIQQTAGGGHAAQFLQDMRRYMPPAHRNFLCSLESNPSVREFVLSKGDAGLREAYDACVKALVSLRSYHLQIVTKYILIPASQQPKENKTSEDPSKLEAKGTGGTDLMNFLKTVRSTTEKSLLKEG

| SMILES | IC50 (SGK2) [µM] | IC50 (IDO1) [nM] |
| --- | --- | --- |
| O=C1NC(=O)C2(CCN(c3cc(Cl)cc4[nH]ncc34)CC2)N1 [CC-1] | 1.3 | 556 |
| C[C@@H]1CN(c2cc(Br)cc3[nH]ncc23)CC[C@]12NC(=O)NC2=O (single isomer, unassigned) [Compound 1-1] | > 2 | 345 |
